Measured values taken from patent US20240294466A1, “SODIUM N-(8-(2- HYDROXYBENZOYL)AMINO)CAPRYLATE P[…] A” (Novo Nordisk A/S, priority 2021, published 2024).
Where two headings read alike, the source gives them in different places.

Columns and labels:
[1] = XRPD FWHM of the peak at 8.7±0.2° 2θ (degree of crystal imperfections), method 1; assay type: physicochemical; conditions: for FWHM (automatic mode), XRPD peak around 8.7 ± 0.2° 2θ, Before: before heat treatment
Experimental: (§1) XRPD was performed using a Malvern Panalytical Empyrean diffractometer at ambient conditions. The diffraction pattern was measured at room temperature using an Empyrean Cu LFF HR (45 kV/40 mA) source and PIXcel3D-Medipix3 1×1 detector. The measurement was performed in the range of 2-40° 20 using a scan speed of 0.067335° 2θ/s and a step size of 0.0262606° 2θ. The samples were measured in transmission mode and with a spinner revolution time of 1 second. Approximately 200 mg of sample were placed between two sheets of Kapton Polyimide Thin-film. The measurements were performed using a Soller slit of 0.04 radians and a fixed divergence slit of 0.5° on the incident beam, and a 3 mm Anti scatter slit and a Soller slit of 0.04 radians in the diffracted beam.
The degree of crystal imperfections was assessed by use of the FWHM as more crystal imperfections might cause peak broadening and lower peak height, which leads to higher FWHM values due to fewer lattice planes with identical orientation contributing to the diffraction peak. Oppositely, in the absence of crystal imperfections, lattice planes with identical orientation increase and result in narrower and higher diffraction peaks leading to smaller FWHM values. The FWHM was calculated using the characteristic peak at 8.7±0.2° 2θ by finding the apex of the peak and measuring the height of the peak applying the x-axis as the baseline (automatic mode) (see FIG. 11) or applying a baseline spanning the two surrounding troughs (manual mode) (see FIG. 12). This value is then divided in half to find the half height. Hereafter the width of the peak at that half height is measured and reported in ° 2θ. Alternatively, the peak at 6.0±0.2° 2θ may also be used to calculate the FWHM.
(§2) Samples from a batch of SNAC polymorphic form A (Batch 5) with a FWHM of 0.97° 2θ (automatic mode) and a moisture uptake of 1.98% at 65% RH from the beginning were heated to 90, 100, 110, 120, 130, and 140° C., respectively, in a tray oven. The samples were exposed to their respective temperatures for up to 72 h. The sample size was small enough to ensure that the samples equilibrated completely, within a few of minutes, to the oven temperature. Samples were taken during the 72 h of elevated temperature exposure and subjected to XRPD measurements in accordance with method 1 to determine the polymorphic form and impact on crystal imperfections using FWHM with the x-axis as the baseline (automatic mode).
(§3) Samples from different batches of SNAC polymorphic form A were subjected to a heat treatment in a tray oven and the sample size was small enough to ensure that the samples equilibrated completely and within a couple of minutes to the oven temperature. Samples were taken from the batches before the heat treatment and after the heat treatment and subjected to XRPD measurements in accordance with method 1 to determine the polymorphic form and impact on crystal imperfections using FWHM with the x-axis as the baseline (auto mode). Furthermore, samples were also subjected to DVS measurements in accordance with method 3 to determine the impact of the heat treatment on the hygroscopicity.

[2] = Dynamic vapour sorption (DVS) moisture uptake, method 3; assay type: physicochemical; conditions: for Moisture absorption at 65% RH, Before: before heat treatment
Experimental: Moisture sorption/desorption data were measured by a Dynamic Vapour Sorption Advantage 1 from Surface Measurement Systems. Prior to analysis the samples were dried for up to about 48 h in desiccators containing phosphorus pentoxide. Approximately 20 mg of sample was placed into a balance pan and loaded into the instrument and the sample was then further dried for a minimum of 500 min in the instrument at 0% RH using a nitrogen purge. The resulting sample weight after the further drying was assigned as the 0% start weight and all weight gains and losses was calculated relative to this start weight. Sorption and desorption isotherms were collected over a range from 0 to 90% relative humidity (RH) using a nitrogen purge at 25° C. The threshold for equilibrium used for analysis was 0.002 to 0.0005 dm/dt.
Furthermore, samples were taken after 24 h of exposure at the indicated elevated temperatures and were subjected to dynamic vapor sorption measurements in accordance with method 3 to determine the hygroscopicity. The moisture uptake was measured at 65% RH. The hygroscopicity is decreased as the moisture absorbed at 65% RH decreases when exposing SNAC polymorphic form A to elevated temperatures for 24 h.

[3] = XRPD with moisture chamber: relative humidity for onset of conversion of form A to trihydrate form F, method 2; assay type: physicochemical; conditions: increasing RH at ambient conditions
Description: The moisture chamber allows for controlling the humidity and temperature of the samples during XRPD measurements.
Samples from different batches of SNAC polymorphic form A were subjected to increasing levels of relative humidity at ambient conditions inside a humidity chamber with the possibility of simultaneous determination of the polymorphic form in accordance with the XRPD method 2. The diffractograms were visually inspected for the appearance of characteristic diffraction peaks for the SNAC polymorphic form F in order to determine at which relative humidity polymorphic conversion of form A to F started.

[4] = Dynamic vapour sorption (DVS) moisture uptake, method 3; assay type: physicochemical; conditions: not ground
[5] = Polymorphic form determined by XRPD, method 1; assay type: physicochemical; conditions: after heat treatment 150° C. for 1 h
Experimental: as §1
The polymorphic form of the sample was determined by comparison of the diffractogram obtained for the sample with reference diffractograms for the SNAC polymorphs and solvates.
as §2, §3

[6] = heat treatment: None; derived from example 1 and figures of WO 2005/107462; cited from earlier work
[7] = heat treatment: None; derived from example 1 and figures of WO 2005/107462; cited from earlier work; remark: listed apart in the source
[8] = made per example 2 of WO 2008/028859, after drying at 90° C. for 18 h
[9] = after heat treatment 120° C. for 24 h
[10] = ground in a mortar with pestle for about 10 min
[11] = after heat treatment 150° C. for 1 h
[12] = after heat treatment 120° C. for 20 h
[13] = heat treatment 115° C. for 24 h
[14] = after heat treatment 115° C. for 24 h

Row | Compound | FWHM (manual mode) ([1]; heat treatment: None) [°2θ] | Moisture absorption at 65% RH ([2]; heat treatment: None) [%] | Onset of trihydrate conversion (form A to form F) ([3]; heat treatment: None) [% RH] | FWHM (automatic mode), XRPD peak around 8.7 ± 0.2° 2θ, Before [1] [° 2θ] | Moisture absorption at 65% RH, Before [2] [%] | further results
1 | O=C([O-])CCCCCCCNC(=O)c1ccccc1O.[Na+] [Batch 7, monosodium N-[8-(2-hydroxybenzoyl)-amino]caprylate] | 0.61 | 2.06 | 70 |  |  | 
2 | O=C([O-])CCCCCCCNC(=O)c1ccccc1O.[Na+] [Batch 11, monosodium N-[8-(2-hydroxybenzoyl)-amino]caprylate, reference compound] |  |  |  |  |  | FWHM (auto mode) [1, 8]: 1.12 °2θ; Moisture absorption at 65% RH [2, 8]: 2.62%
3 | O=C([O-])CCCCCCCNC(=O)c1ccccc1O.[Na+] [Batch 5, monosodium N-[8-(2-hydroxybenzoyl)-amino]caprylate] |  |  |  | 0.97 | 1.98 | FWHM (automatic mode), XRPD peak around 8.7 ± 0.2° 2θ, After [1, 9]: 0.58 ° 2θ; Moisture absorption at 65% RH, After [2, 9]: 0.94%
4 | O=C([O-])CCCCCCCNC(=O)c1ccccc1O.[Na+] [Batch 10, monosodium N-[8-(2-hydroxybenzoyl)-amino]caprylate] |  |  |  |  |  | FWHM (auto mode) [1, 10]: 1.00 °2θ; FWHM (auto mode) ([1]; not ground): 0.79 °2θ; Moisture absorption at 60% RH [2, 10]: 2.99%; Moisture absorption at 60% RH [4]: 1.19%
5 | O=C([O-])CCCCCCCNC(=O)c1ccccc1O.[Na+] [Batch 3, monosodium N-[8-(2-hydroxybenzoyl)-amino]caprylate] | 0.66 | 1.95 | 75 |  |  | 
6 | O=C([O-])CCCCCCCNC(=O)c1ccccc1O.[Na+] [Batch 2, monosodium N-[8-(2-hydroxybenzoyl)-amino]caprylate] | 0.84 | 2.90 | 70 | 1.21 | 2.90 | FWHM (automatic mode), XRPD peak around 8.7 ± 0.2° 2θ, After [1, 11]: 0.42 ° 2θ; Polymorphic form, After [5]: A & B; Moisture absorption at 65% RH, After [2, 11]: 1.04%
7 | O=C([O-])CCCCCCCNC(=O)c1ccccc1O.[Na+] [Batch 4, monosodium N-[8-(2-hydroxybenzoyl)-amino]caprylate] |  |  |  | 0.79 | 0.83 | FWHM (automatic mode), XRPD peak around 8.7 ± 0.2° 2θ, After [1, 12]: 0.58 ° 2θ; Moisture absorption at 65% RH, After [2, 12]: 0.84%
8 | O=C([O-])CCCCCCCNC(=O)c1ccccc1O.[Na+] [Batch 8, monosodium N-[8-(2-hydroxybenzoyl)-amino]caprylate] | 0.82 | 2.51 | 70 |  |  | FWHM (manual mode) [1, 13]: 0.47 °2θ; Moisture absorption at 65% RH [2, 13]: 0.99%; Onset of trihydrate conversion (form A to form F) [3, 13]: 80 % RH
9 | O=C([O-])CCCCCCCNC(=O)c1ccccc1O.[Na+] [Batch X, monosodium N-[8-(2-hydroxybenzoyl)-amino]caprylate] |  |  |  |  |  | FWHM (manual mode) [6]: 0.90 °2θ; Moisture absorption at 65% RH [7]: 1.50%
10 | O=C([O-])CCCCCCCNC(=O)c1ccccc1O.[Na+] [Batch 1, monosodium N-[8-(2-hydroxybenzoyl)-amino]caprylate] |  |  |  | 1.08 | 2.66 | FWHM (automatic mode), XRPD peak around 8.7 ± 0.2° 2θ, After [1, 14]: 0.60 ° 2θ; Moisture absorption at 65% RH, After [2, 14]: 1.26%
11 | O=C([O-])CCCCCCCNC(=O)c1ccccc1O.[Na+] [Batch 6, monosodium N-[8-(2-hydroxybenzoyl)-amino]caprylate] | 0.65 | 1.81 | 75 |  |  | 
12 | O=C([O-])CCCCCCCNC(=O)c1ccccc1O.[Na+] [Batch 9, monosodium N-[8-(2-hydroxybenzoyl)-amino]caprylate] | 0.60 | 1.29 | 80 |  |  | FWHM (manual mode) [1, 13]: 0.52 °2θ; Moisture absorption at 65% RH [2, 13]: 0.98%; Onset of trihydrate conversion (form A to form F) [3, 13]: 80 % RH
